Test results published in PubChem BioAssay AID1035473 (Broad Institute, 2014).

Tested on: A549 viability, CellTiter-Glo ATP luminescence, 72 h
Assay: A549 cell cytotoxicity, dose response, cytotoxicity control, dry powder samples (AID 1035473)

`Cn1c(NC(=O)c2ccccc2)nc2c3cnccc3ccc21` gave an AC50 of 83.9 µM.
